Experiments:
STAT3 = molecular target: T1, STAT3 (Homo sapiens, UniProt P40763); experiment: Fluorescent immunoblotting of STAT3 protein in MOLM-16 cells (estimated DC50); format: cell-based; settings: MOLM-16, 4 h
T1 construct: endogenous in cells; host or cells: MOLM-16 (acute leukemia cells)
Experimental: In vitro cultured cells or xenograft tumors were lysed 1×Cell Lysis Buffer (Cell Signaling Technology, #9803), resolved by SDS-PAGE NuPAGE gel (Thermo Fisher Scientific), and transferred to a PVDF membrane (Bio Rad). For chemiluminescence immunoblotting, membranes were blocked for 1 h using 5% Blotting-Grade Blocker (#1706404, Bio Rad) in 1×Tris-buffered saline with Tween 20 (TBST, Pierce). Antibodies used were: rabbit mAbs for STAT3 (Cell Signaling Technology, #4368, #12640) and p-STAT3 (Y705) (Cell Signaling Technology, #9245, #52075). HRP conjugated goat anti-rabbit IgG (H+L) (#A27036) secondary antibodies was from Thermo Fisher Scientific. GAPDH (Santa Cruz Technology, sc-47724HRP) and actin (Santa Cruz Technology, sc-8432HRP, sc-47778HRP) were loading controls. For fluorescent immunoblotting, membranes were blocked using Odyssey TBS Blocker Buffer (LI-COR). IRDye 680RD and 800CW Dye-labeled secondary antibodies (LI-COR) were used. The washed membranes were scanned using Odyssey CLx imager (LI-COR). The intensity of Western blot signaling was quantitated using the Odyssey software or Image Studio V5.2 (LI-COR).

MOLM-16 cells = experiment: Cell growth inhibition, 4-day proliferation assay (CellTiter-Glo); format: cell-based; settings: MOLM16, 96 h; MOLM-16, 4 days
Experimental: The effect of representative Compounds of the Disclosure on cell viability was determined in a 4-day proliferation assay. Cells were maintained in the appropriate culture medium at 37° C. and an atmosphere of 5% CO2. All the cell lines were used within three months of thawing fresh vials. Cells were seeded in 384-well white plates (Corning Costar) at a density of 2,000 cells/well in 25 μl of culture medium. Compounds were serially diluted in the appropriate medium, and 25 μl of the diluted compounds were added to the cells. After the addition of compounds, the cells were incubated at 37° C. in an atmosphere of 5% CO2 for 4 days. Cell viability was determined using the CellTiter-Glo® Luminescent Cell Viability Assay Kit (Promega, Madison, WI) according to the manufacturers' instructions. Essentially, 50 μl of CellTiter-Glo® Reagent was added to each well, and then the plates were incubated at room temperature for 20 minutes. The luminescent signal was measured using a Tecan multimode microplate reader (Tecan, Morrisville, NC). The readings were normalized to the DMSO-treated cells and the IC50 was calculated by nonlinear regression (four parameters sigmoid fitted with variable slope, least squares fit, and no constraint) analysis using the GraphPad Prism software.

T1 sequence (P40763 whole entry): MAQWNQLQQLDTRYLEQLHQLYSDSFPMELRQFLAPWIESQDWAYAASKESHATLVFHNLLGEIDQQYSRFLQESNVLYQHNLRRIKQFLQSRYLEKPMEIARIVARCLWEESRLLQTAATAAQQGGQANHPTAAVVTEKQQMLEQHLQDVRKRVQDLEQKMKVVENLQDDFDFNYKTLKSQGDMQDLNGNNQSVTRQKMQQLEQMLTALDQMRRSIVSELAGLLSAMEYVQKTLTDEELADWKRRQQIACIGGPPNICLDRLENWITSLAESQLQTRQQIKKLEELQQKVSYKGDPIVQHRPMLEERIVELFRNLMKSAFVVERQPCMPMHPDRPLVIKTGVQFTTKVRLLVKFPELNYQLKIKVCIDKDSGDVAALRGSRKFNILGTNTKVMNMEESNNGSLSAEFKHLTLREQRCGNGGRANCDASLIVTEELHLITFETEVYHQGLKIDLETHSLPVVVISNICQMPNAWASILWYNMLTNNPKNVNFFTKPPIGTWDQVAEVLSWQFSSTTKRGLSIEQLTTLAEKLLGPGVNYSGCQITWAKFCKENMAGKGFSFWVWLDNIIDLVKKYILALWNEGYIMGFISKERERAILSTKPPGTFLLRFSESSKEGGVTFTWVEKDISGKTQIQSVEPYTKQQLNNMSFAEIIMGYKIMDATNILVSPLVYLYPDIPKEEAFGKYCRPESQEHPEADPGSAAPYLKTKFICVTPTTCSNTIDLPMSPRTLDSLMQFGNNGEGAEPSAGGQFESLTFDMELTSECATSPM

SMILES	DC50 (STAT3) [µM]	IC50 (MOLM-16 cells) [µM]
NC(=O)CC[C@H](NC(=O)[C@@H]1CC[C@@H]2CCN(C(=O)CCCCCC#Cc3cccc4c3CN(C3CCC(=O)NC3=O)C4=O)C[C@H](NC(=O)c3cc4cc(C(F)(F)P(=O)(O)O)ccc4s3)C(=O)N21)c1nc(Cc2ccccc2)cs1 (stereo partly drawn) [Cpd. No. 3, ((2-(((5S,8S,10aR)-8-(((S)-4-amino-1-(4-benzylthiazol-2-yl)-4-oxobutyl)carbamoyl)-3-(8-(2-(2,6-dioxopiperidin-3-yl)-1-oxoisoindolin-4-yl)oct-7-ynoyl)-6-oxodecahydropyrrolo[1,2-a][1,5]diazocin-5-yl)carbamoyl)benzo[b]thiophen-5-yl)difluoromethyl)phosphonic acid]	0.1	0.17
NC(=O)CC[C@H](NC(=O)[C@@H]1CC[C@@H]2CCN(C(=O)CCCCCC#Cc3cccc4c3CN(C3CCC(=O)NC3=O)C4=O)C[C@H](NC(=O)c3cc4cc(C(F)(F)P(=O)(O)O)ccc4s3)C(=O)N21)c1nc(-c2ccccc2)cs1 (stereo partly drawn) [Cpd. No. 4, ((2-(((5S,8S,10aR)-8-(((S)-4-amino-4-oxo-1-(4-phenylthiazol-2-yl)butyl)carbamoyl)-3-(8-(2-(2,6-dioxopiperidin-3-yl)-1-oxoisoindolin-4-yl)oct-7-ynoyl)-6-oxodecahydropyrrolo[1,2-a][1,5]diazocin-5-yl)carbamoyl)benzo[b]thiophen-5-yl)difluoromethyl)phosphonic acid]	0.2	0.14
NC(=O)CC[C@H](NC(=O)[C@@H]1CC[C@@H]2CCN(C(=O)CCCCCC#Cc3cccc4c3CN(C3CCC(=O)NC3=O)C4=O)C[C@H](NC(=O)c3cc4cc(C(F)(F)P(=O)(O)O)ccc4s3)C(=O)N21)c1ncc(Cc2ccccc2)s1 (stereo partly drawn) [Cpd. No. 5, ((2-(((5S,8S,10aR)-8-(((S)-4-amino-1-(5-benzylthiazol-2-yl)-4-oxobutyl)carbamoyl)-3-(8-(2-(2,6-dioxopiperidin-3-yl)-1-oxoisoindolin-4-yl)oct-7-ynoyl)-6-oxodecahydropyrrolo[1,2-a][1,5]diazocin-5-yl)carbamoyl)benzo[b]thiophen-5-yl)difluoromethyl)phosphonic acid]	0.1	0.049
NC(=O)CC[C@H](NC(=O)[C@@H]1CC[C@@H]2CCN(C(=O)CCCCCC#Cc3cccc4c3CN(C3CCC(=O)NC3=O)C4=O)C[C@H](NC(=O)c3cc4cc(C(F)(F)P(=O)(O)O)ccc4s3)C(=O)N21)c1nc2c(s1)Cc1ccccc1-2 (stereo partly drawn) [Cpd. No. 6, ((2-(((5S,8S,10aR)-8-(((S)-4-amino-1-(8H-indeno[1,2-d]thiazol-2-yl)-4-oxobutyl)carbamoyl)-3-(8-(2-(2,6-dioxopiperidin-3-yl)-1-oxoisoindolin-4-yl)oct-7-ynoyl)-6-oxodecahydropyrrolo[1,2-a][1,5]diazocin-5-yl)carbamoyl)benzo[b]thiophen-5-yl)difluoromethyl)phosphonic acid]	0.1	0.064
NC(=O)CC[C@H](NC(=O)[C@@H]1CC[C@@H]2CCN(C(=O)CCCCCC#Cc3cccc4c3CN(C3CCC(=O)NC3=O)C4=O)C[C@H](NC(=O)c3cc4cc(C(F)(F)P(=O)(O)O)ccc4s3)C(=O)N21)c1ncc(-c2ccc(Cl)cc2)s1 (stereo partly drawn) [Cpd. No. 7, ((2-(((5S,8S,10aR)-8-(((S)-4-amino-1-(5-(4-chlorophenyl)thiazol-2-yl)-4-oxobutyl)carbamoyl)-3-(8-(2-(2,6-dioxopiperidin-3-yl)-1-oxoisoindolin-4-yl)oct-7-ynoyl)-6-oxodecahydropyrrolo[1,2-a][1,5]diazocin-5-yl)carbamoyl)benzo[b]thiophen-5-yl)difluoromethyl)phosphonic acid]	0.05	–
NC(=O)OC[C@H](NC(=O)[C@@H]1CC[C@@H]2CCN(C(=O)CCCCCC#Cc3cccc4c3CN(C3CCC(=O)NC3=O)C4=O)C[C@H](NC(=O)c3cc4cc(C(F)(F)P(=O)(O)O)ccc4s3)C(=O)N21)c1ncc(-c2ccccc2)s1 (stereo partly drawn) [Cpd. No. 8, ((2-(((5S,8S,10aR)-8-(((S)-2-(carbamoyloxy)-1-(5-phenylthiazol-2-yl)ethyl)carbamoyl)-3-(8-(2-(2,6-dioxopiperidin-3-yl)-1-oxoisoindolin-4-yl)oct-7-ynoyl)-6-oxodecahydropyrrolo[1,2-a][1,5]diazocin-5-yl)carbamoyl)benzo[b]thiophen-5-yl)difluoromethyl)phosphonic acid]	0.1	0.013
NC(=O)CC[C@H](NC(=O)[C@@H]1CC[C@@H]2CCN(C(=O)CCCCCC#Cc3cccc4c3CN(C3CCC(=O)NC3=O)C4=O)C[C@H](NC(=O)c3cc4cc(C(F)(F)P(=O)(O)O)ccc4s3)C(=O)N21)c1ncc(-c2ccc(F)cc2)s1 (stereo partly drawn) [Cpd. No. 9, ((2-(((5S,8S,10aR)-8-(((S)-4-amino-1-(5-(4-fluorophenyl)thiazol-2-yl)-4-oxobutyl)carbamoyl)-3-(8-(2-(2,6-dioxopiperidin-3-yl)-1-oxoisoindolin-4-yl)oct-7-ynoyl)-6-oxodecahydropyrrolo[1,2-a][1,5]diazocin-5-yl)carbamoyl)benzo[b]thiophen-5-yl)difluoromethyl)phosphonic acid]	0.05	0.06
NC(=O)CC[C@H](NC(=O)[C@@H]1CC[C@@H]2CCN(C(=O)CCCCCC#Cc3cccc4c3CN(C3CCC(=O)NC3=O)C4=O)C[C@H](NC(=O)c3cc4cc(C(F)(F)P(=O)(O)O)ccc4s3)C(=O)N21)c1nc(-c2ccc(F)c(F)c2)cs1 (stereo partly drawn) [Cpd. No. 11, ((2-(((5S,8S,10aR)-8-(((S)-4-amino-1-(4-(3,4-difluorophenyl)thiazol-2-yl)-4-oxobutyl)carbamoyl)-3-(8-(2-(2,6-dioxopiperidin-3-yl)-1-oxoisoindolin-4-yl)oct-7-ynoyl)-6-oxodecahydropyrrolo[1,2-a][1,5]diazocin-5-yl)carbamoyl)benzo[b]thiophen-5-yl)difluoromethyl)phosphonic acid]	0.1	–
NC(=O)CC[C@H](NC(=O)[C@@H]1CC[C@@H]2CCN(C(=O)CCCCCC#Cc3cccc4c3CN(C3CCC(=O)NC3=O)C4=O)C[C@H](NC(=O)c3cc4cc(C(F)(F)P(=O)(O)O)ccc4s3)C(=O)N21)c1nc(-c2ccc(F)cc2)cs1 (stereo partly drawn) [Cpd. No. 12, ((2-(((5S,8S,10aR)-8-(((S)-4-amino-1-(4-(4-fluorophenyl)thiazol-2-yl)-4-oxobutyl)carbamoyl)-3-(8-(2-(2,6-dioxopiperidin-3-yl)-1-oxoisoindolin-4-yl)oct-7-ynoyl)-6-oxodecahydropyrrolo[1,2-a][1,5]diazocin-5-yl)carbamoyl)benzo[b]thiophen-5-yl)difluoromethyl)phosphonic acid]	0.1	–
NC(=O)CC[C@H](NC(=O)[C@@H]1CC[C@@H]2CCN(C(=O)CCCCCC#Cc3cccc4c3CN(C3CCC(=O)NC3=O)C4=O)C[C@H](NC(=O)c3cc4cc(C(F)(F)P(=O)(O)O)ccc4s3)C(=O)N21)c1nc(-c2ccc(Cl)cc2)cs1 (stereo partly drawn) [Cpd. No. 13, ((2-(((5S,8S,10aR)-8-(((S)-4-amino-1-(4-(4-chlorophenyl)thiazol-2-yl)-4-oxobutyl)carbamoyl)-3-(8-(2-(2,6-dioxopiperidin-3-yl)-1-oxoisoindolin-4-yl)oct-7-ynoyl)-6-oxodecahydropyrrolo[1,2-a][1,5]diazocin-5-yl)carbamoyl)benzo[b]thiophen-5-yl)difluoromethyl)phosphonic acid]	0.1	–
CC(C)(C)c1cnc([C@H](CCC(N)=O)NC(=O)[C@@H]2CC[C@@H]3CCN(C(=O)CCCCCC#Cc4cccc5c4CN(C4CCC(=O)NC4=O)C5=O)C[C@H](NC(=O)c4cc5cc(C(F)(F)P(=O)(O)O)ccc5s4)C(=O)N32)s1 (stereo partly drawn) [Cpd. No. 15, ((2-(((5S,8S,10aR)-8-(((S)-4-amino-1-(5-(tert-butyl)thiazol-2-yl)-4-oxobutyl)carbamoyl)-3-(8-(2-(2,6-dioxopiperidin-3-yl)-1-oxoisoindolin-4-yl)oct-7-ynoyl)-6-oxodecahydropyrrolo[1,2-a][1,5]diazocin-5-yl)carbamoyl)benzo[b]thiophen-5-yl)difluoromethyl)phosphonic acid]	0.5	–
CC(C)(C)c1ccc(-c2cnc([C@H](CCC(N)=O)NC(=O)[C@@H]3CC[C@@H]4CCN(C(=O)CCCCCC#Cc5cccc6c5CN(C5CCC(=O)NC5=O)C6=O)C[C@H](NC(=O)c5cc6cc(C(F)(F)P(=O)(O)O)ccc6s5)C(=O)N43)s2)cc1 (stereo partly drawn) [Cpd. No. 17, ((2-(((5S,8S,10aR)-8-(((S)-4-amino-1-(5-(4-(tert-butyl)phenyl)thiazol-2-yl)-4-oxobutyl)carbamoyl)-3-(8-(2-(2,6-dioxopiperidin-3-yl)-1-oxoisoindolin-4-yl)oct-7-ynoyl)-6-oxodecahydropyrrolo[1,2-a][1,5]diazocin-5-yl)carbamoyl)benzo[b]thiophen-5-yl)difluoromethyl)phosphonic acid]	0.2	–

— patent publication US12522623B2, “Small molecule STAT protein degraders” (THE REGENTS OF THE UNIVERSITY OF MICHIGAN, priority 2020, dated 2026)
